In one data set the test system is HSV-1. In words: HSV-1 ELISA in BSC-1 cells. Format: cell-based, herpes simplex virus 1. The following applies: Human alphaherpesvirus 1, quadruplicate wells, read-out: HSV-1 ELISA 50% Inhibitory Concentration (IC50). As to the method:
An ELISA was employed (see Prichard, M. N.; Shipman, C., Jr. A Three Dimensional Model to Analyze Drug-Drug Interactions. Antiviral Res. 1990, 14, 181-206) to detect HSV-1. Ninety-six-well cluster dishes were planted with 10,000 BSC-1 cells per well in 200 μL per well of MEM(E) plus 10% calf serum. After overnight incubation at 37° C., selected drug concentrations in quadruplicate and HSV-1 at a concentration of 100 p.f.u./well were added. Following a 3-day incubation at 37° C., medium was removed, plates were blocked, rinsed, and horse radish peroxidase conjugated rabbit anti-HSV-1 antibody was added. Following removal of the antibody containing solution, plates were rinsed, and then developed by adding 150 μL per well of a solution of tetramethylbenzidine as substrate. The reaction was stopped with H2SO4 and absorbance was read at 450 and 570 nm. Drug effects were calculated as a percentage of the reduction in absorbance in the presence of each drug concentration compared to absorbance obtained with virus in the absence of drug.
(§1) Dose-response relationships were constructed by linearly regressing the percent inhibition of parameters derived in the preceding sections against log drug concentrations. Fifty-percent inhibitory concentrations (IC50's) or IC90's were calculated from the regression lines. Samples containing positive controls (acyclovir for HSV-1, ganciclovir for HCMV, and 2-acetylpyridine thiosemicarbazone for cytotoxicity) were used in all assays.

The subject of data set [1] is HCMV. In words: HCMV plaque reduction assay (Towne strain) in HFF cells. Format: cell-based, Human cytomegalovirus. On the procedure:
(§2) Stock HCMV was prepared by infecting HFF cells at a multiplicity of infection (m.o.i.) of <0.01 plaque-forming units (p.f.u.) per cell as detailed previously (see Turk, S. R.; Shipman, C., Jr.; Nassiri, M. R.; Genzingler, G.; Krawczyk, S. H.; Townsend, L. B.; Drach, J. C. Pyrrolo[2,3-d]pyrimidine Nucleosides as Inhibitors of Human Cytomegalovirus, Antimicrob. Agents Chemother. 1987, 31, 544-550). High titer HSV-1 stocks were prepared by infecting KB cells (ATCC) at an m.o.i. of <0.1 also as detailed previously (see Turk, S. R.; Shipman, C., Jr.; Nassiri, M. R.; Genzingler, G.; Krawczyk, S. H.; Townsend, L. B.; Drach, J. C. Pyrrolo[2,3-d]pyrimidine Nucleosides as Inhibitors of Human Cytomegalovirus, Antimicrob. Agents Chemother. 1987, 31, 544-550). Virus titers were determined using monolayer cultures of HFF cells for HCMV and monolayer cultures of BSC-1 cells for HSV-1 as described earlier (see Prichard, M. N.; Turk, S. R.; Coleman, L. A.; Engelhardt, S. L.; Shipman, C., Jr.; Drach, J. C. A Microtiter Virus Yield Reduction Assay for the Evaluation of Antiviral Compounds Against Human Cytomegalovirus and Herpes Simplex Virus. J. Virol. Methods 1990, 28, 101-106). Briefly, HFF or BSC-1 cells were planted as described above in 96-well cluster dishes and incubated overnight at 37° C. The next day cultures were inoculated with HCMV or HSV-1 and serially diluted 1:3 across the remaining eleven columns of the 96-well plate. After virus adsorption the inoculum was replaced with fresh medium and cultures were incubated for seven days for HCMV, two or three days for HSV-1. Plaques were enumerated under 20-fold magnification in wells having the dilution which gave 5 to 20 plaques per well. Virus titers were calculated according to the following formula: Titer (p.f.u./mL)=number of plaques×5×3^n; where n represents the nth dilution of the virus used to infect the well in which plaques were enumerated.
(§3) HFF cells in 24-well cluster dishes were infected with approximately 100 p.f.u. of HCMV per cm^2 cell sheet using the procedures detailed above. Following virus adsorption, compounds dissolved in growth medium were added to duplicate wells in four to eight selected concentrations. After incubation at 37° C. for 7 to 10 days, cell sheets were fixed, stained with crystal violet and microscopic plaques enumerated as described above.
as §1
In general terms: Plaque reduction counts the foci of infection that form in a cell layer.

Data set [2] can be described thus: Visual cytotoxicity in stationary HFF cells. The format is cell-based. The following applies: human. On the procedure:
(§4) Two different assays were used for routine cytotoxicity testing. (i) Cytotoxicity produced in stationary HFF cells was determined by microscopic inspection of cells not affected by the virus used in plaque assays (see Turk, S. R.; Shipman, C., Jr.; Nassiri, M. R.; Genzingler, G.; Krawczyk, S. H.; Townsend, L. B.; Drach, J. C. Pyrrolo[2,3-]pyrimidine Nucleosides as Inhibitors of Human Cytomegalovirus, Antimicrob. Agents Chemother. 1987, 31, 544-550). (ii) The effect of compounds during two population doublings of KB cells was determined by crystal violet staining and spectrophotometric quantitation of dye eluted from stained cells as described earlier (see Prichard, M. N.; Prichard, L. E., Baguley, W. A.; Nassiri, M. R.; Shipman, C., Jr. Three-Dimensional Analysis of the Synergistic Cytotoxicity of Ganciclovir and Zidovudine. Antiviral Res. 1991, 35, 1060-1065). Briefly, 96-well cluster dishes were planted with KB cells at 3000-5000 cells per well. After overnight incubation at 37° C., test compound was added in quadruplicate at six to eight concentrations. Plates were incubated at 37° C. for 48 hours in a CO2 incubator, rinsed, fixed with 95% ethanol, and stained with 0.1% crystal violet. Acidified ethanol was added and plates read at 570 nm in a spectrophotometer designed to read 96-well ELISA assay plates.
as §1

In data set [3] the test system is HCMV. In words: HCMV yield reduction assay (Towne strain) in HFF cells. Format: cell-based, Human cytomegalovirus. As to the method: as §2
HFF cells were planted as described above in 96-well cluster dishes, incubated overnight, medium removed and the cultures were inoculated with HCMV at a m.o.i. of 0.5 to 1 p.f.u. per cell as reported elsewhere (see Prichard, M. N.; Turk, S. R.; Coleman, L. A.; Engelhardt, S. L.; Shipman, C., Jr.; Drach, J. C. A Microtiter Virus Yield Reduction Assay for the Evaluation of Antiviral Compounds Against Human Cytomegalovirus and Herpes Simplex Virus. J. Virol. Methods 1990, 28, 101-106). After virus adsorption, inoculum was replaced with 0.2 mL of fresh medium containing test compounds. The first row of 12 wells was left undisturbed and served as virus controls. Each well in the second row received an additional 0.1 mL of medium with test compound at three times the desired final concentration. The contents of the 12 wells were mixed by repeated pipetting and then serially diluted 1:3 along the remaining wells. In this manner, six compounds could be tested in duplicate on a single plate with concentrations from […]. Plates were incubated at 37° C. for seven days, subjected to one cycle of freezing and thawing; aliquots from each of the eight wells of a given column were transferred to the first column of a fresh 96-well monolayer culture of HFF cells. Contents were mixed and serially diluted 1:3 across the remaining eleven columns of the secondary plate. Each column of the original primary plate was diluted across a separate plate in this manner. Cultures were incubated, plaques were enumerated, and titers calculated as described above.
as §1

Data set [4] can be described thus: Inhibition of KB cell growth (crystal violet). The format is cell-based. The note with it: human. As to the method:
as §4, §1

The subject of another data set is HCMV Strain AD169. In words: HCMV plaque reduction assay, strain AD169. Format: cell-based, Human cytomegalovirus. The note with it: Human betaherpesvirus 5, Table 3, read-out: HCMV Strain AD169 plaque 50% Inhibitory Concentration (IC50). As to the method:
as §3, §1

Where [5] appears, read: Human betaherpesvirus 5, HFF, Table 3, same data as Table 2, read-out: HCMV Strain Towne plaque 50% Inhibitory Concentration (IC50).
[6] abbreviates: Human betaherpesvirus 5, Table 2, HFF cells, duplicate, read-out: HCMV plaque 50% Inhibitory Concentration (IC50).
Setting [7] is: Human betaherpesvirus 5, HFF, Table 3, same data as Table 2, read-out: HCMV Strain Towne yield 90% Inhibitory Concentration (IC90).
The mark [8] stands for this setting: Human betaherpesvirus 5, Table 2, HFF cells, duplicate, read-out: HCMV yield 90% Inhibitory Concentration (IC90).
Setting [9] is: HFF cells, scored at time of HCMV plaque enumeration, read-out: Cytotoxicity visual (IC50).
The mark [10] stands for this setting: KB cells, KB cell growth, 48 hours, quadruplicate, read-out: Cytotoxicity growth (IC50).

Values joined by “and” are separate entries in the source; they are usually repeats but may differ in a detail not shown here. Identical values can stand only once. Like-named read-outs stand apart in the source and are kept apart here.

Take `OC[C@@H]1O[C@@H](n2c(Cl)nc3cc(Cl)c(Cl)cc32)[C@H](O)[C@@H]1O` [Compound 4a, 1-(α-L-Lyxofuranosyl)-2,5,6-trichlorobenzimidazole]: the IC50 is above 100 µM in the data set on HSV-1; 18 µM in the data set on HCMV [1] (setting [5]); 18 µM in the data set on HCMV [1] (setting [6]); 190 µM in data set [2]; 2.6 µM in the data set on HCMV Strain AD169. The IC90 with HCMV [3] (setting [7]) and with HCMV [3] (setting [8]) was 3.4 µM each time. In data set [4], the IC50 at 48 h was above 100 µM.
With `OC[C@H]1O[C@H](n2c(Cl)nc3cc(Cl)c(Cl)cc32)[C@@H](O)[C@H]1O` [Compound 4b, 1-(α-D-Lyxofuranosyl)-2,5,6-trichlorobenzimidazole], the IC50 with HSV-1 is 90 µM; in the data set on HCMV [1] (setting [5]) it was 18 µM; with HCMV [1] (setting [6]) it was 18 µM; in data set [2], above 100 µM; in the data set on HCMV Strain AD169, 9 µM. Also, the IC90 with HCMV [3] (setting [7]) and with HCMV [3] (setting [8]) was above 100 µM each time. Also, the IC50 at 48 h in data set [4] is above 100 µM.
As for `OC[C@H]1O[C@H](n2c(Br)nc3cc(Cl)c(Cl)cc32)[C@@H](O)[C@H]1O` [Compound 5b, 2-Bromo-5,6-dichloro-1-(α-D-lyxofuranosyl)benzimidazole], the IC50 was 50 µM in the data set with HSV-1; 6 µM in the data set with HCMV [1] (setting [5]); 6 µM with HCMV [1] (setting [6]); above 100 µM in data set [2] (setting [9]); 4.2 µM in the data set with HCMV Strain AD169. Also, the IC90 in the data set with HCMV [3] (setting [7]) and with HCMV [3] (setting [8]) was 65 µM in each case. In addition, the IC50 at 48 h in data set [4] (setting [10]) was above 100 µM.
As for `CNc1nc2cc(Cl)c(Cl)cc2n1[C@H]1O[C@H](CO)[C@H](O)[C@@H]1O` [Compound 6b, 5,6-Dichloro-1-(α-D-lyxofuranosyl)-2-(methylamino)benzimidazole], the IC50 (with HSV-1; in the data set on HCMV [1] (setting [6]); in data set [2] (setting [9])) was above 100 µM throughout. Also, the IC90 in the data set with HCMV [3] (setting [8]) is above 100 µM. Further, the IC50 at 48 h in data set [4] (setting [10]) was above 100 µM.
For `CC(C)Nc1nc2cc(Cl)c(Cl)cc2n1[C@@H]1O[C@@H](CO)[C@@H](O)[C@H]1O` [Compound 7a, 5,6-Dichloro-2-isopropylamino-1-(α-L-lyxofuranosyl)benzimidazole], the IC50 in the data set with HSV-1 is above 100 µM; in the data set on HCMV [1] (setting [5]), above 100 µM; in the data set with HCMV [1] (setting [6]) it was above 100 µM; in data set [2] (setting [9]), above 100 µM; in the data set with HCMV Strain AD169, 11 µM. The IC90 with HCMV [3] (setting [7]) and with HCMV [3] (setting [8]) was 19 µM throughout. For the same molecule, in data set [4] (setting [10]), the IC50 at 48 h is above 100 µM.
Consider `CC(C)Nc1nc2cc(Cl)c(Cl)cc2n1[C@H]1O[C@H](CO)[C@H](O)[C@@H]1O` [Compound 7b, 5,6-Dichloro-2-isopropylamino-1-(α-D-lyxofuranosyl)benzimidazole], for which the IC50 in the data set on HSV-1 is above 100 µM; in the data set on HCMV [1] (setting [5]), 60 µM; in the data set with HCMV [1] (setting [6]), 60 µM; in data set [2] (setting [9]), above 100 µM; in the data set on HCMV Strain AD169, 32 µM. Moreover, the IC90 in the data set on HCMV [3] (setting [7]) and in the data set with HCMV [3] (setting [8]) was 17 µM each time. For the same molecule, in data set [4] (setting [10]), the IC50 at 48 h is above 100 µM.
Take `OC[C@@H]1O[C@@H](n2c(NC3CC3)nc3cc(Cl)c(Cl)cc32)[C@H](O)[C@@H]1O` [Compound 8a, 2-Cyclopropylamino-5,6-dichloro-1-(α-L-lyxofuranosyl)benzimidazole]: the melting point is 183 to 185 °C and 184 to 186 °C.
For the molecule `OC[C@H]1O[C@H](n2c(=S)[nH]c3cc(Cl)c(Cl)cc32)[C@@H](O)[C@H]1O` [Compound 9b, 5,6-Dichloro-1-(α-D-lyxofuranosyl)benzimidazol-2-thione], the IC50 (with HSV-1; in the data set on HCMV [1] (setting [6]); in data set [2] (setting [9])) was above 100 µM in each case. Besides, the IC90 in the data set with HCMV [3] (setting [8]) was above 100 µM. In addition, in data set [4] (setting [10]), the IC50 at 48 h is above 100 µM.
Consider `CSc1nc2cc(Cl)c(Cl)cc2n1[C@@H]1O[C@@H](CO)[C@@H](O)[C@H]1O` [Compound 12a, 5,6-Dichloro-1-(α-L-lyxofuranosyl)-2-(methylthio)benzimidazole], for which the IC50 (with HSV-1; in the data set on HCMV [1] (setting [6]); in data set [2] (setting [9])) was above 100 µM each time. The IC50 at 48 h in data set [4] (setting [10]) is above 100 µM.
As to `CSc1nc2cc(Cl)c(Cl)cc2n1[C@H]1O[C@H](CO)[C@H](O)[C@@H]1O` [Compound 12b, 5,6-Dichloro-1(α-D-lyxofuranosyl)-2-(methylthio)benzimidazole], the IC50 (in the data set with HSV-1; in the data set on HCMV [1] (setting [6]); in data set [2] (setting [9])) was above 100 µM each time. In the data set on HCMV [3] (setting [8]), the IC90 is above 100 µM. In addition, the IC50 at 48 h in data set [4] (setting [10]) is above 100 µM.
`O=C(O)P(=O)(O)O` [foscarnet, reference compound]: the IC50 with HCMV [1] (setting [6]) was 39 ± 26 µM; in data set [2] (setting [9]), above 100 µM.

The term melting point denotes the temperature of the solid-liquid transition.

The record behind these values is patent US6455506B1, “Lyxofuranosyl benzimidazoles as antiviral agents” (SmithKline Beecham Corporation, priority 1997, dated 2002).
